Reference: article PMC8652888, “Angiogenesis, Anti-Tumor, and Anti-Metastatic Activity of Novel α-Substituted Hetero-Aromatic Chalcone Hybrids as Inhibitors of Microtubule Polymerization” (Frontiers in Chemistry, 2021)
Like-named read-outs stand apart in the source and are kept apart here.

Columns and labels:
U937 = experiment: Antiproliferative activity, CCK-8 assay; format: cell-based; details: Homo sapiens, U-937
Method: (§1) The synthesized compounds were first evaluated for their cytotoxic effect on MCF-7 (human breast adenocarcinoma), U937 (histiocytic lymphoma cancer), HepG2 (human liver cancer) cells, and MGC-803 (human gastric cancer) using the SRB and CCK-8 assay. As reference compounds CA-4 and colchicine were included.
(§2) The primary tumor cells were purchased from a professional biomedical company. First, the primary tumor cells were incubated in a cell culture incubator at 37°C and 5% CO2. After the cell fusion reached 85%–95%, subculture was performed, and the tumor cells obtained at this time were used for subsequent related experiments. The CCK-8 method was used to inhibit the proliferation of U937 tumor cells, and the SRB method was used to inhibit the proliferation of MCF7 and HepG2 tumor cells.
The cells in the logarithmic growth phase were seeded in a 96-well plate at 8,000/well, and the drug-containing medium and cell suspension were added to the well. Three wells were added with the blank medium as the blank group. The 96-well plate was incubated for 72 h in a 37°C, 5% CO2 incubator. The 10 μl of CCK-8 dye solution was added to each well, and the incubation continued for 3–4 h.

MCF-7 = experiment: Antiproliferative activity, SRB assay; format: cell-based, human; details: Homo sapiens;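 further: proliferation of MCF7 cells quantified by sulforhodamine B staining, with optical density read at 560 nm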
HepG2 = experiment: Antiproliferative activity, SRB assay; format: cell-based, human; details: Homo sapiens, HepG2
Method: as §1, §2
Cells were distributed into 96-well plates with a density of 3 × 10^3–4 × 10^3 cells per well and incubated for 24 h in a 5% CO2 incubator at 37°C, followed by treatment with study compounds at different concentrations at 37°C for 72 h. One hundred microliters of 10% (w/v) trichloroacetic acid was added to each well, fixed at 4°C for 30 min, and dried at 65°C. Then 100 μl of 0.4% SRB was added to each well and stained on a shaker for 20 min at room temperature. The excess dye solution was washed with newly prepared 1% glacial acetic acid and dried at 65°C. One hundred fifty microliters of 10 mM unbuffered Trisbase was added to each well of the plate and shaken for 5 min to dissolve the dye. The microplate reader measured the optical density (OD) at a wavelength of 560 nm.

[1] = 72 h, triplicate, mean ± SD, read-out: IC50 ± SD, U937
[2] = MCF7, 72 h, 72 h, triplicate, mean ± SD, read-out: IC50 ± SD, MCF-7
[3] = MCF7, supplement raw data of table 2, read-out: IC50(MCF-7)
[4] = 72 h, triplicate, mean ± SD, read-out: IC50 ± SD, HepG2
[5] = supplement raw data of table 2, read-out: IC50(Hepg2)
[6] = supplement raw data of table 2, read-out: IC50(U937)

With `COc1cc(C(=O)/C(C)=C/c2c(C)[nH]c3ccccc23)cc(OC)c1OC` [Compound 7b, (E)-2-methyl-3-(2-methyl-1H-indol-3-yl)-1-(3,4,5-trimethoxyphenyl)prop-2-en-1-one] the melting point was 152.7 to 153.2 °C, the IC50 (U937; [1]) was 3080 ± 433 nM and the IC50 (MCF-7; [2]) was 584 ± 16 nM. It also gave an IC50 (MCF-7; [3]) of 584 nM and an IC50 (HepG2; [4]) of 10800 ± 629 nM.
With `COC(=O)c1ccc2[nH]cc(/C=C(\C)C(=O)c3cc(OC)c(OC)c(OC)c3)c2c1` [Compound 7e, methyl(E)-3-(2-methyl-3-oxo-3-(3,4,5-trimethoxyphenyl)prop-1-en-1-yl)-1H-indole-5-carboxylate] the melting point was 210.4 to 213.7 °C, the IC50 (U937; [1]) was > 20000 nM and the IC50 (MCF-7; [2]) was > 20000 nM. The IC50 (HepG2; [4]) was > 20000 nM.
For `COC(=O)c1ccc2c(/C=C(\C)C(=O)c3cc(OC)c(OC)c(OC)c3)c[nH]c2c1` [Compound 7f, methyl(E)-3-(2-methyl-3-oxo-3-(3,4,5-trimethoxyphenyl)prop-1-en-1-yl)-1H-indole-6-carboxylate], the melting point was 229.3 to 231.7 °C, the IC50 (U937; [1]) was 1620 ± 190 nM and the IC50 (MCF-7; [2]) was 13700 ± 965 nM. For the same molecule, the IC50 (HepG2; [4]) was 193 ± 1 nM.
Molecule `COc1cc(C(=O)/C(C)=C/c2cc3ccccc3o2)cc(OC)c1OC` [Compound 7h, (E)-3-(benzofuran-2-yl)-2-methyl-1-(3,4,5-trimethoxyphenyl)prop-2-en-1-one] has a melting point of 50.1 to 53.2 °C, an IC50 (U937; [1]) of 224 ± 7 nM and an IC50 (MCF-7; [2]) of 254 ± 10 nM. The IC50 (MCF-7; [3]) was 255 nM and the IC50 (HepG2; [4]) was 116 ± 7 nM.
Molecule `COc1cc(C(=O)/C(C)=C/c2oc3ccccc3c2C)cc(OC)c1OC` [Compound 7i, (E)-2-methyl-3-(3-methylbenzofuran-2-yl)-1-(3,4,5-trimethoxyphenyl)prop-2-en-1-one] has a melting point of 113.2 to 115.1 °C, an IC50 (U937; [1]) of 1180 ± 37 nM and an IC50 (MCF-7; [2]) of 1410 ± 21 nM. It also gave an IC50 (HepG2; [4]) of 879 ± 7 nM and an IC50 (HepG2; [5]) of 879 nM.
`COc1cc(C(=O)/C(C)=C/c2ccc3c(c2)CCO3)cc(OC)c1OC` [Compound 7n, (E)-3-(2,3-dihydrobenzofuran-5-yl)-2-methyl-1-(3,4,5-trimethoxyphenyl)prop-2-en-1-one] gave an IC50 (U937; [1]) of 11 ± 2 nM, an IC50 (U937; [6]) of 10.8 nM and an IC50 (MCF-7; [2]) of 20 ± 2 nM. The IC50 (MCF-7; [3]) was 19.5 nM, the IC50 (HepG2; [4]) was 2 ± 0.1 nM and the IC50 (HepG2; [5]) was 2.21 nM.
`COc1cc(C(=O)/C(C)=C/c2cc3ccccc3s2)cc(OC)c1OC` [Compound 7o, (E)-3-(benzo[b]thiophen-2-yl)-2-methyl-1-(3,4,5-trimethoxyphenyl)prop-2-en-1-one] showed a melting point of 81.4 to 83.2 °C, an IC50 (U937; [1]) of 166 ± 3 nM and an IC50 (U937; [6]) of 166 nM. The IC50 (MCF-7; [2]) was 187 ± 3 nM, the IC50 (MCF-7; [3]) was 187 nM and the IC50 (HepG2; [4]) was 116 ± 1 nM. The IC50 (HepG2; [5]) was 116 nM.
With `COc1cc(C(=O)/C(C)=C/c2cccc3c2OCO3)cc(OC)c1OC` [Compound 7s, (E)-3-(benzo[d][1,3]dioxol-4-yl)-2-methyl-1-(3,4,5-trimethoxyphenyl)prop-2-en-1-one] the melting point was 119.7 to 120.9 °C, the IC50 (U937; [1]) was 353 ± 6 nM and the IC50 (U937; [6]) was 353 nM. It also gave an IC50 (MCF-7; [2]) of 225 ± 5 nM, an IC50 (HepG2; [4]) of 259 ± 5 nM and an IC50 (HepG2; [5]) of 259 nM.
In the case of `COc1cc(C(=O)/C(C#N)=C/c2c[nH]c3ccccc23)cc(OC)c1OC` [Compound 8a, (E)-3-(1H-indol-3-yl)-2-(3,4,5-trimethoxybenzoyl)acrylonitrile], the melting point is reported as 224.2 to 229.3 °C, the IC50 (U937; [1]) is reported as 140 ± 41 nM and the IC50 (U937; [6]) is reported as 140 nM. It also gave an IC50 (MCF-7; [2]) of 934 ± 23 nM, an IC50 (MCF-7; [3]) of 940 nM and an IC50 (HepG2; [4]) of 938 ± 8 nM. It also gave an IC50 (HepG2; [5]) of 938 nM.
In the case of `COc1cc(C(=O)/C(C#N)=C/c2c(C)[nH]c3ccccc23)cc(OC)c1OC` [Compound 8b, (E)-3-(2-methyl-1H-indol-3-yl)-2-(3,4,5-trimethoxybenzoyl)acrylonitrile], the melting point is reported as 216.5 to 218.2 °C, the IC50 (U937; [1]) is reported as > 20000 nM and the IC50 (MCF-7; [2]) is reported as > 20000 nM. The IC50 (HepG2; [4]) was > 20000 nM.
In the case of `COc1cc(C(=O)/C(C#N)=C/c2ccc3c(c2)CCO3)cc(OC)c1OC` [Compound 8n, (E)-3-(2,3-dihydrobenzofuran-5-yl)-2-(3,4,5-trimethoxybenzoyl)acrylonitrile], the IC50 (U937; [1]) is reported as 9250 ± 141 nM, the IC50 (MCF-7; [2]) is reported as > 20000 nM and the IC50 (HepG2; [4]) is reported as > 20000 nM.
